PMC8812735, “Discovery of triterpenoids as potent dual inhibitors of pancreatic lipase and human carboxylesterase 1” (Journal of Enzyme Inhibition and Medicinal Chemistry, 2022)
Like-named read-outs stand apart in the source and are kept apart here.

Tests used:
Assay type in all cases: biochemical
hCES1A = molecular target: T1, hCES1A (Homo sapiens, UniProt P23141); experiment: Inhibition of hCES1A-mediated NLMe hydrolysis in human liver microsomes
T1 construct: tissue Bioreclamation IVT lot No. X008067; host or cells: pooled human liver microsomes from 50 donors
T1 sequence (P23141 18-567): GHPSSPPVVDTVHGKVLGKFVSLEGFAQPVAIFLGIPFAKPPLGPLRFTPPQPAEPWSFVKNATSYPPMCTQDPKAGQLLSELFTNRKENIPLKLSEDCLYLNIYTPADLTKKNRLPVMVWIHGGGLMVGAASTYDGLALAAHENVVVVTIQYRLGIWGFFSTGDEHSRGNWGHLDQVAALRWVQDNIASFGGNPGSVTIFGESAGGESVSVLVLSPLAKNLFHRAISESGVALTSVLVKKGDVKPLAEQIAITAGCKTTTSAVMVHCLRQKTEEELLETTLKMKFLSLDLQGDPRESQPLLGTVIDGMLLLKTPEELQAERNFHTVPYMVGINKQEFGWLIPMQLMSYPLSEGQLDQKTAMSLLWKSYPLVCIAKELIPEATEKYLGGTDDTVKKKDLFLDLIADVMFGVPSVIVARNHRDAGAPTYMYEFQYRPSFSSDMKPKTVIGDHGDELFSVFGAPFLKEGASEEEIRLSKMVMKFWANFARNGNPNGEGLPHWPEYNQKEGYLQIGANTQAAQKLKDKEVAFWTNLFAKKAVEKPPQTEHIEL
Procedure: N-Alkylated D-luciferin methyl ester (NLMe), a Specific probe for hCES1A[45], was used for assessing the inhibitory effects for triterpenoids, and BNPP was used as a positive inhibitor of hCES1A. […] Then NLMe (2 µL, 0.15 mM) was added to start the reaction. After shaking the reaction in 37 °C incubator for 10 min, 50 µL of reaction solution was removed and mixed with LDR (50 µL) to terminate the reaction. A multi-mode microplate reader was used to detect the luminescence signal of NL (the hydrolysed metabolite of NLMe). The luminescence product of NL was measured at 580 nm (gain: 140). The final volume ratio of DMSO was less than 1% (V/V).
(§1) Subsequently, various concentrations of substrates (selected according to Km) and different concentrations of inhibitors were used to determine the corresponding reaction rate, and the second slope graph of the Lineweaver–Burk diagram was used as a function of the inhibitor to calculate the corresponding inhibition constant (Ki) value. All kinetic data were fitted by the following kinetic equations (a–c), for competitive (a), non-competitive (b) and mixed inhibition (c): (a) V=(VmaxS)/[Km(1+I/Ki)+S] (b) V=(VmaxS)/[(Km+S)×(1+I/Ki)] (c) V=(VmaxS)/[(Km+S)×(1+I/αKi)] where V is the hydrolytic velocity of the reaction, Vmax is the maximum velocity. S and I are substrate (4-MUO, NLMe) and inhibitor (compound 39/41) concentrations, respectively. Ki is the inhibition constant of the tested inhibitor against the target PL and hCES1A; Km is the Michaelis constant (the substrate concentration at half of the Vmax).
All measurements were made in triplicate and the data obtained in the experiment were shown as mean ± SD. The IC50 and Ki values of the compounds with strong inhibitory effect were evaluated by nonlinear regression with graphpad prism 7.0 software (GraphPad Software, Inc., La Jolla, CA).

Pancreatic lipase (PL) = molecular target: T2, Pancreatic lipase (PL) (Sus scrofa, UniProt P00591); experiment: Inhibition of PL-mediated 4-MUO hydrolysis; details: 4-MUO substrate, mean ± SD (n = 3)
T2 construct: purchased Sigma Aldrich type II, Lot.SLBN9099V
T2 sequence (P00591 1-450): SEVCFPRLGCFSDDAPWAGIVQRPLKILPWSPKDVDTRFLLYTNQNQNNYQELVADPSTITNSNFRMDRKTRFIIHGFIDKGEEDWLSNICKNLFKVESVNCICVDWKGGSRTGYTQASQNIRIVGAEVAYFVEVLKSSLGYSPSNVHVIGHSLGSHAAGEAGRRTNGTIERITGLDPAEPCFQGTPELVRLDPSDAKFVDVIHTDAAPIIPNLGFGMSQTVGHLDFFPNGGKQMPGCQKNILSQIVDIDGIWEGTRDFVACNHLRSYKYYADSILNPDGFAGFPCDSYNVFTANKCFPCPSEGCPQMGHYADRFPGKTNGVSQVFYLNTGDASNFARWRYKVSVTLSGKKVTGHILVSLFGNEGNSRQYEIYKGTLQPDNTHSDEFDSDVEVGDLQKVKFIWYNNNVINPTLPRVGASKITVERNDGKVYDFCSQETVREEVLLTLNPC
Procedure: In addition, the background fluorescence in the absence of an enzyme source (PL) (add the same amount of citrate-Na2HPO4 buffer) was measured. […] Then start the reaction by adding 2 µL of 4-MUO probe (3 µM, final concentration). The fluorescence signal of 4-MU (hydrolytic metabolite) was detected by multi-mode microplate reader (SpectraMax M4, Molecular Devices, Urstein, Austria) with continuous oscillation for 20 min and recorded and analysed at 60 s intervals. The excitation wavelength and emission wavelength of 4-MU were set at 340 nm and 460 nm, respectively, and the gain value was 500.
as §1
All measurements were made in triplicate and the data obtained in the experiment were shown as mean ± SD.

hCES2A = molecular target: T3, hCES2A (Homo sapiens, UniProt O00748); experiment: Inhibition of hCES2A-mediated FD hydrolysis
T3 sequence (O00748 27-559): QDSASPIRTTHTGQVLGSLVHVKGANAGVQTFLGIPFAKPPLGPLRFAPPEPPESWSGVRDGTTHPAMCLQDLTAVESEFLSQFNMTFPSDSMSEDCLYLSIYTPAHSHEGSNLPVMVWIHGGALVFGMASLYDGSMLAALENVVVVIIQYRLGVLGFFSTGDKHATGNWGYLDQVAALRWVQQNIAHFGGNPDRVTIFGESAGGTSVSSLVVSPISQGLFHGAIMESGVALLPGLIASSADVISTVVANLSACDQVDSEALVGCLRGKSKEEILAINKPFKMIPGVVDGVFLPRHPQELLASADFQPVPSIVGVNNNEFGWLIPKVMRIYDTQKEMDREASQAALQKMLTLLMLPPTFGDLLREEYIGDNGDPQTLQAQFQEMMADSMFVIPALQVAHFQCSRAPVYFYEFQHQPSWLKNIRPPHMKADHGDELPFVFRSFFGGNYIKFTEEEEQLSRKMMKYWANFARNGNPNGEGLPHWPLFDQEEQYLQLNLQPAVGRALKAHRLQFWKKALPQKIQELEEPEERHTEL
Text: […] (FD) was used as the hCES2A specific probe substrate to assay the inhibitory effect of natural triterpenoids on hCES2A. The entire detailed operation process refers to the previously reported method, and finally the FD mixture was put into the multi-mode microplate reader for analysis and detection.

[1] = NLMe substrate, HLM, mean ± SD (n = 3), read-out: IC50 (µM) hCES1A

SMILES | IC50 (hCES1A; [1]) [µM] | IC50 (Pancreatic lipase (PL)) [µM] | IC50 (hCES1A) [µM] | IC50 (hCES2A; FD substrate, mean ± SD (n = 3), read-out: IC50 (µM) hCES2A) [µM] | IC50 (hCES2A) [µM]
CCCCCC(=O)OC1CCC2(C)C(CCC3(C)C2CC=C2C4CC(C)(C)CCC4(C(=O)O)CCC23C)C1(C)C (stereo not drawn) [Compound 35] | 1.82 ± 0.29 | > 100 |  |  | 
C[C@H]1[C@H](C)CC[C@]2(C(=O)O)CC[C@]3(C)C(=CC[C@@H]4[C@@]5(C)CC[C@H](O)C(C)(C)[C@@H]5CC[C@]43C)[C@H]12 [Compound 5, ursolic acid] | 0.04 ± 0.004 | 6.16 ± 0.97 |  |  | 
CC(=O)OC1CCC2(C)C(CCC3(C)C2CC=C2C4CC(C)(C)CCC4(C(=O)O)CCC23C)C1(C)C (stereo not drawn) [Compound 31] |  | 3.67 ± 0.72 | 0.051 ± 0.005 |  | 
CC1(C)CC[C@]2(C(=O)O)CC[C@]3(C)C(=CC[C@@H]4[C@@]5(C)CC[C@H](O)C(C)(C)[C@@H]5CC[C@]43C)[C@@H]2C1 [Compound 1, oleanolic acid] | 0.04 ± 0.003 | 8.63 ± 0.84 |  |  | 
CC1CCC2(C(=O)O)CCC3(C)C(=CCC4C5(C)C=C(O)C(=O)C(C)(C)C5CCC43C)C2C1C (stereo not drawn) [Compound 43] | 0.032 ± 0.003 | 5.21 ± 1.24 |  |  | 
CC1(C)CC[C@]2(C(=O)O)CC[C@]3(C)C(=CC[C@@H]4[C@@]5(C)CC[C@H](O)[C@@](C)(CO)[C@@H]5CC[C@]43C)[C@@H]2C1 [Compound 3, hederagenin] | 0.04 ± 0.004 | 13 ± 2.03 |  | 9.22 ± 1.43 | 
O=[N+]([O-])c1ccc(OP(=O)(O)Oc2ccc([N+](=O)[O-])cc2)cc1 [Compound 29, Bis-p-nitrophenyl phosphate, reference compound] | 0.36 ± 0.03 | > 100 |  |  | 
C[C@H]1[C@H](C)CC[C@]2(C)CC[C@]3(C)C(=CC[C@@H]4[C@@]5(C)CC[C@@H](O)[C@](C)(C(=O)O)[C@@H]5CC[C@]43C)[C@H]12 [Compound 8, β-Boswellic acid] | > 100 | 0.42 ± 0.05 |  |  | 
CC1(C)CCC2(C(=O)O)CCC3(C)C(=CCC4C5(C)CCC(OC(=O)CCC(=O)O)C(C)(C)C5CCC43C)C2C1 (stereo not drawn) [Compound 33] | 0.043 ± 0.003 | 36.4 ± 5.17 |  |  | 
CC1=C(O)C(=O)C=C2C1=CC=C1[C@@]2(C)CC[C@@]2(C)[C@@H]3C[C@](C)(C(=O)O)CC[C@]3(C)CC[C@]12C [Compound 11, Celastrol] |  | 4.69 ± 0.37 | 14.3 ± 3.03 |  | 
CC(=O)OC1CCC2(C)C(CCC3(C)C2CC=C2C4CC(C)(C)CCC4(C(N)=O)CCC23C)C1(C)C (stereo not drawn) [Compound 32] | 0.11 ± 0.013 | 7.02 ± 0.59 |  |  | 
C[C@H]1[C@H](C)CC[C@]2(C(=O)O)CC[C@]3(C)C(=CC[C@@H]4[C@@]5(C)C[C@@H](O)[C@H](O)[C@@](C)(CO)[C@@H]5CC[C@]43C)[C@H]12 [Compound 7, asiatic acid] |  | 12.9 ± 1.87 | 0.17 ± 0.02 |  | 65.1 ± 6.41
CC1(C)CCC2(CO)CCC3(C)C(=CCC4C5(C)CCC(O)C(C)(C)C5CCC43C)C2C1 (stereo not drawn) [Compound 37] | 4.11 ± 0.77 | 11.8 ± 1.6 |  |  | 
C=C(C)[C@@H]1CC[C@]2(CO)CC[C@]3(C)[C@H](CC[C@@H]4[C@@]5(C)CC[C@H](O)C(C)(C)[C@@H]5CC[C@]43C)[C@@H]12 [Compound 12, betulin] |  | 7.47 ± 1.68 | > 100 |  | 
